According to PMC12030627, “Radioiodinated Bicyclic RGD Peptide Derivatives for Enhanced Tumor Accumulation” (Pharmaceuticals, 2025):
Read-outs that look alike come from different tables or passages of the source. Starred links: 1 amine or outer side, 2 acyl side, 3 side chain; linkers in the order of their positions; H or OH if unused. Positions of bridges follow the written chain, without caps; N, C: chain ends. Non-standard residues stand in square brackets, D forms with d. Residues, ends and D or L forms follow the SMILES beside them. *: point of attachment. TBMB = c1c(C[*:1])cc(C[*:3])cc1C[*:2]; Palmitoyl = CCCCCCCCCCCCCCCC(=O)*; Benzoyl(3-I) = O=C(c1cccc(I)c1)*; 4Abz = Nc1ccc(C(=O)O)cc1

What was measured:
integrin αVβ3 / αVβ5 = conditions: cited from earlier work
Description: A radiolabeled probe based on this bicyclic peptide, [^125I]bcRGD, was synthesized and shown to selectively accumulate in αVβ3-expressing cancer cells and xenograft models in mice. However, like many l ...

[1] = Albumin binding, size-exclusion spin column elution after incubation with mouse plasma; format: in vitro ADME; conditions: 37 kBq in 50 μL PBS(–) incubated 37 °C 10 min with 200 μL mouse plasma (male ddY); Sephadex G-50 Fine spin column, 2000 rpm 2 min; γ-counter; eluted/added radioactivity × 100
Experimental: To assess albumin binding, mouse plasma was obtained by centrifugation of whole blood from male ddY mice (9 weeks old). [^125I]bcRGD, [^125I]bcRGDpal, [^125I]bcRGDiba, or [^125I]bcRGDdimer (37 kBq) in 50 μL PBS(–) was incubated at 37 °C for 10 min with 200 μL of PBS(–), mouse plasma, or human serum albumin (HSA, 45 mg/mL in PBS(–); Wako Pure Chemical Industries, Osaka, Japan). The mixtures were applied to gel filtration spin columns (Sephadex G-50 Fine; Cytiva, Tokyo, Japan), centrifuged (2000 rpm, 2 min), and radioactivity in the eluted fraction was measured with a γ-counter. The high molecular weight fraction was calculated as the elution ratio = (radioactivity in elution)/(added radioactivity) × 100 (%).

[2] = Octanol–water distribution coefficient (log D); format: physicochemical; conditions: shake-flask 1-octanol/PBS(–) pH 7.4, 1.0 mL each (1:1), 40 kBq, vortexed 2 min, centrifuged 5000 rpm 5 min, radioactivity by γ-counter, mean of n = 4
Experimental: For log D determination, [^125I]bcRGD, [^125I]bcRGDpal, [^125I]bcRGDiba, or [^125I]bcRGDdimer (40 kBq) was dissolved in 1.0 mL PBS(–) (pH 7.4) and mixed with 1.0 mL 1-octanol (1:1, v/v). The mixture was vortexed for 2 min and centrifuged at 5000 rpm for 5 min. Radioactivity in 0.5 mL of each phase was measured using a γ-counter, and log D values were calculated based on the radioactivity distribution (n = 4).

[3] = Biodistribution in U-87 MG tumor-bearing mice; format: in vivo, BALB/c nu-nu mice; conditions: mouse, total radioactivity, 2 h post-administration, tumor-bearing mice, comparator value, no method or n printed for this probe
Experimental: Animal experiments were performed in compliance with institutional animal care regulations, with the study protocol approved by the Experimental Animal Committee of Osaka Medical and Pharmaceutical University (Approval Numbers: 21–76, 22–76, and 23–76). Four-week-old male BALB/c nu-nu mice (Japan SLC, Shizuoka, Japan) were housed under a 12 h light/12 h dark cycle with free access to food and water. Tumor-bearing mice were established by suspending U-87 MG cells (2 × 10^6 cells/mouse) in PBS(–) and subcutaneously injecting 100 μL of the suspension into the right hind leg. For co-implantation models, A549 cells (2 × 10^6 cells/mouse) were suspended in PBS(–) and inoculated (100 μL) into the left hind leg of the same mice already inoculated with U-87 MG cells. Mice with tumor size approximately 10 mm in diameter, 4–5 weeks after inoculation, were used for biodistribution studies. Animals in which either tumor was not viable were excluded from the experiment.
U-87 MG-bearing mice (n = 42, 8–9 weeks old; 22–27 g) were randomly assigned into groups and administered [^125I]bcRGDpal or [^125I]bcRGDiba via intravenous injection (37 kBq in 100 μL of PBS containing 0.1% Tween 80 (PBS-T80)). At 5 min, 30 min, 1 h, 2 h, 6 h, 12 h, or 24 h post-injection, the mice were euthanized (n = 3 per time point). The heart, kidneys, liver, brain, pancreas, spleen, lung, small intestine, large intestine, muscle, skin, stomach, bone, and tumors were excised. Each organ’s weight and radioactivity were measured by a NaI well-type scintillation counter, and the % ID/g was calculated. To investigate the correlation between integrin expression and radioactivity accumulation, biodistribution at 2 h after administration of [^125I]bcRGDpal or [^125I]bcRGDiba was assessed in A549 and U-87 MG co-implantation mice (n = 5) using the same procedure. Additionally, co-implantation mice were injected with [^125I]bcRGDdimer (37 kBq/100 μL PBS-T80) and euthanized at 30 min, 2 h, and 4 h post-injection (n = 4 per time point), and % ID/g values were calculated as described above. The minimum sample size needed for the biodistribution study in U-87 MG-bearing mice was calculated using G Power software version 3.1.9.7. The calculation was based on a two-tailed test, with an effect size of 3.9, a significance level (α) of 0.05, and a statistical power (1 − β) of 0.8. […] The minimum required sample size for the biodistribution study in A549 and U-87 MG co-implantation mice was also calculated to be four animals per group (effect size = 2.5, α = 0.05, 1 − β = 0.8). To guarantee objective results, the experiment was carried out in a blinded manner. Specifically, drug administration and radioactivity measurements were conducted by different investigators to eliminate potential bias.

human serum albumin = biological target: T1, human serum albumin (human, UniProt P02768 25-609); assay: SEC; [^125I]-peptide (37 kBq in 50 μL PBS(-)) with 200 μL HSA (45 mg/mL in PBS(-)), 37 °C, 10 min; Sephadex G-50 Fine gel filtration spin column, 2000 rpm, 2 min; radioactivity in the eluted high molecular weight fraction as % of that added; conditions: both partners purified
T1 construct: human serum albumin, 45 mg/mL in PBS(-); also called HSA; source: bought: Wako Pure Chemical Industries

Molecule	elution ratio (high molecular weight fraction) with HSA (human serum albumin) [%]	αVβ3/αVβ5 selectivity ratio (ratio of corresponding IC50 values) (integrin αVβ3 / αVβ5)	further results
cilengitide		4.7	
CC(=O)N[C@@H](CCCCNC(=O)c1cccc(I)c1)C(=O)N1CCC[C@H]1C(=O)N1CCC[C@H]1C(=O)N1CCC[C@H]1C(=O)N[C@@H](CO)C(=O)NCC(=O)Nc1ccc(C(=O)N[C@@H](CO)C(=O)NCC(=O)N[C@H]2CSCc3cc4cc(c3)CSC[C@@H](NC(=O)[C@H](CCC(N)=O)NC(=O)[C@@H]3CCCN3C(=O)[C@H](Cc3c[nH]cn3)NC2=O)C(=O)N[C@@H](CCCNC(=N)N)C(=O)NCC(=O)N[C@@H](CC(=O)O)C(=O)N[C@@H](C(N)=O)CSC4)cc1 [[^125I]bcRGD, reference compound] (Ac-K(Benzoyl(3-I))PPPSG[4Abz]SGCHPQ[dC]RGD[dC]-NH2; linker 10-14-18 via TBMB)			Elution rate from size-exclusion resin (high molecular weight fraction), mouse plasma [1]: 2%; logD [2]: -2.02; tissue uptake at 2 h ([3]; U-87 MG tumor, read-out: Tumor-accumulated radioactivity (U-87 MG)): 0.7 %ID/g; tissue uptake at 2 h ([3]; blood, read-out: Blood radioactivity level): 0.3 %ID/g
cyclo-(RGDfK)		0.2	

Second part, led by results:

elution ratio (high molecular weight fraction) with HSA (human serum albumin) [%]	Molecule	αVβ3/αVβ5 selectivity ratio (ratio of corresponding IC50 values) (integrin αVβ3 / αVβ5)	further results
60	{4‑(p-iodophenyl)butyryl}-K((125I)3‑iodobenzoyl)PPPSG[4Abz]SGCHPQ[dC]RGD[dC]-NH2 (linker 10-14-18 via TBMB (inferred)) [[^125I]bcRGDiba]		
80	Palmitoyl-K((125I)3‑iodobenzoyl)PPPSG[4Abz]SGCHPQ[dC]RGD[dC]-NH2 (linker 10-14-18 via TBMB (inferred)) [[^125I]bcRGDpal]		
